# Test results as given in paper PMC10835127, “Viruses traverse the human proteome through peptide interfaces that can be biomimetically leveraged for drug discovery” (Proceedings of the National Academy of Sciences of the …, 2024).
# Like-named read-outs stand apart in the source and are kept apart here.
# Tests used:
# [1] = system: F. novicida (strain U112); type: cell-based
# HCV replicon = type: cell-based; conditions: normalized mean of HCV replicon readout
# HIV1 strain NL4-3 = type: cell-based; conditions: normalized mean of HIV1 replication readout
# EBV = conditions: normalized mean of EBV replication readout
# influenza A H1N1 virus = conditions: 48 hr post-treatment, A549
substance,measurement,setting,value
CPEP102: peptide of the viral peptide library; sequence page not shown (PHGPVQLSYYD),Francisella novicida Norm AUC,[1],0.8816
same,HCV Norm MEAN,HCV replicon,0.8145
same,HIV1 Norm MEAN,HIV1 strain NL4-3,1.958
same,EBV Norm MEAN,EBV,1.648
same,Neuraminidase activity normalized to vehicle,influenza A H1N1 virus; 200 µM peptide,"0,8099"
same,Neuraminidase activity normalized to vehicle,"influenza A H1N1 virus; 0,823 µM peptide","0,6759"
same,Neuraminidase activity normalized to vehicle,"influenza A H1N1 virus; 22,2 µM peptide","0,942"
same,Neuraminidase activity normalized to vehicle,"influenza A H1N1 virus; 2,4691 µM peptide","1,0283"
same,Neuraminidase activity normalized to vehicle,"influenza A H1N1 virus; 7,4074 µM peptide","0,877"
same,Neuraminidase activity normalized to vehicle,"influenza A H1N1 virus; 66,6667 µM peptide","1,0125"
LTMVI [CPEP12],Francisella novicida Norm AUC,[1],1.651
same,HCV Norm MEAN,HCV replicon,0.1977
same,HIV1 Norm MEAN,HIV1 strain NL4-3,1.936
same,EBV Norm MEAN,EBV,1.608
same,Neuraminidase activity normalized to vehicle,influenza A H1N1 virus; 200 µM peptide,"0,732"
same,Neuraminidase activity normalized to vehicle,"influenza A H1N1 virus; 0,823 µM peptide","0,7557"
same,Neuraminidase activity normalized to vehicle,"influenza A H1N1 virus; 22,2 µM peptide","0,8312"
same,Neuraminidase activity normalized to vehicle,"influenza A H1N1 virus; 2,4691 µM peptide","0,7112"
same,Neuraminidase activity normalized to vehicle,"influenza A H1N1 virus; 7,4074 µM peptide","0,7657"
same,Neuraminidase activity normalized to vehicle,"influenza A H1N1 virus; 66,6667 µM peptide","0,8968"
CPEP135: peptide of the viral peptide library; sequence page not shown (KGHRGSHTMNGH),Francisella novicida Norm AUC,[1],1.216
same,HCV Norm MEAN,HCV replicon,0.5732
same,HIV1 Norm MEAN,HIV1 strain NL4-3,0.5949
same,EBV Norm MEAN,EBV,0.8556
same,Neuraminidase activity normalized to vehicle,influenza A H1N1 virus; 200 µM peptide,"0,865"
same,Neuraminidase activity normalized to vehicle,"influenza A H1N1 virus; 0,823 µM peptide","0,9322"
same,Neuraminidase activity normalized to vehicle,"influenza A H1N1 virus; 22,2 µM peptide","0,9598"
same,Neuraminidase activity normalized to vehicle,"influenza A H1N1 virus; 2,4691 µM peptide","0,9359"
same,Neuraminidase activity normalized to vehicle,"influenza A H1N1 virus; 7,4074 µM peptide","0,8333"
same,Neuraminidase activity normalized to vehicle,"influenza A H1N1 virus; 66,6667 µM peptide","0,9822"
ARARALARGAGPANSV [CPEP47],Francisella novicida Norm AUC,[1],0.949
same,HCV Norm MEAN,HCV replicon; peptide screen,1.1445
same,HIV1 Norm MEAN,HIV1 strain NL4-3; peptide screen,2.79
same,EBV Norm MEAN,EBV; peptide screen,1.295
same,Neuraminidase activity normalized to vehicle,influenza A H1N1 virus; 200 µM peptide,"1,0179"
same,Neuraminidase activity normalized to vehicle,"influenza A H1N1 virus; 0,823 µM peptide","1,0745"
same,Neuraminidase activity normalized to vehicle,"influenza A H1N1 virus; 22,2 µM peptide","1,1923"
same,Neuraminidase activity normalized to vehicle,"influenza A H1N1 virus; 2,4691 µM peptide","1,0399"
same,Neuraminidase activity normalized to vehicle,"influenza A H1N1 virus; 7,4074 µM peptide","1,1089"
same,Neuraminidase activity normalized to vehicle,"influenza A H1N1 virus; 66,6667 µM peptide","1,0424"
SAPCLLKLSTTLLCLEI [CPEP124],Francisella novicida Norm AUC,[1],0.6911
same,HCV Norm MEAN,HCV replicon; peptide screen,1.253
same,HIV1 Norm MEAN,HIV1 strain NL4-3; peptide screen,14.9843
same,EBV Norm MEAN,EBV; peptide screen,0.5543
same,Neuraminidase activity normalized to vehicle,influenza A H1N1 virus; 200 µM peptide,"0,1059"
same,Neuraminidase activity normalized to vehicle,"influenza A H1N1 virus; 0,823 µM peptide","1,0611"
same,Neuraminidase activity normalized to vehicle,"influenza A H1N1 virus; 22,2 µM peptide","0,6181"
same,Neuraminidase activity normalized to vehicle,"influenza A H1N1 virus; 2,4691 µM peptide","0,9657"
same,Neuraminidase activity normalized to vehicle,"influenza A H1N1 virus; 7,4074 µM peptide","1,0354"
same,Neuraminidase activity normalized to vehicle,"influenza A H1N1 virus; 66,6667 µM peptide","0,1507"
EDLLNEPGQPLDLSC [CPEP104],Francisella novicida Norm AUC,[1],1.073
same,HCV Norm MEAN,HCV replicon; peptide screen,1.128
same,HIV1 Norm MEAN,HIV1 strain NL4-3; peptide screen,0.2933
same,EBV Norm MEAN,EBV; peptide screen,0.504
same,Neuraminidase activity normalized to vehicle,influenza A H1N1 virus; 200 µM peptide,"0,8372"
same,Neuraminidase activity normalized to vehicle,"influenza A H1N1 virus; 0,823 µM peptide","0,8247"
same,Neuraminidase activity normalized to vehicle,"influenza A H1N1 virus; 22,2 µM peptide","0,8954"
same,Neuraminidase activity normalized to vehicle,"influenza A H1N1 virus; 2,4691 µM peptide","0,9133"
same,Neuraminidase activity normalized to vehicle,"influenza A H1N1 virus; 7,4074 µM peptide","0,8771"
same,Neuraminidase activity normalized to vehicle,"influenza A H1N1 virus; 66,6667 µM peptide","0,8952"
LGQGVSIEW [CPEP122],Francisella novicida Norm AUC,[1],1.0126
same,HCV Norm MEAN,HCV replicon,0.594
same,HIV1 Norm MEAN,HIV1 strain NL4-3,0.4311
same,EBV Norm MEAN,EBV,0.7196
same,Neuraminidase activity normalized to vehicle,influenza A H1N1 virus; 200 µM peptide,"0,6921"
same,Neuraminidase activity normalized to vehicle,"influenza A H1N1 virus; 0,823 µM peptide","1,0256"
same,Neuraminidase activity normalized to vehicle,"influenza A H1N1 virus; 22,2 µM peptide","0,854"
same,Neuraminidase activity normalized to vehicle,"influenza A H1N1 virus; 2,4691 µM peptide","0,9073"
same,Neuraminidase activity normalized to vehicle,"influenza A H1N1 virus; 7,4074 µM peptide","0,9191"
same,Neuraminidase activity normalized to vehicle,"influenza A H1N1 virus; 66,6667 µM peptide","0,7889"
LERVIFPSVKIATLV [CPEP53],Francisella novicida Norm AUC,[1],0.5248
same,HCV Norm MEAN,HCV replicon; peptide screen,0.3466
same,HIV1 Norm MEAN,HIV1 strain NL4-3; peptide screen,0.6568
same,EBV Norm MEAN,EBV; peptide screen,1.031
same,Neuraminidase activity normalized to vehicle,influenza A H1N1 virus; 200 µM peptide,"0,9303"
same,Neuraminidase activity normalized to vehicle,"influenza A H1N1 virus; 0,823 µM peptide","0,9211"
same,Neuraminidase activity normalized to vehicle,"influenza A H1N1 virus; 22,2 µM peptide","1,0363"
same,Neuraminidase activity normalized to vehicle,"influenza A H1N1 virus; 2,4691 µM peptide","1,008"
same,Neuraminidase activity normalized to vehicle,"influenza A H1N1 virus; 7,4074 µM peptide","1,0347"
same,Neuraminidase activity normalized to vehicle,"influenza A H1N1 virus; 66,6667 µM peptide","1,0977"
DKELYPLTSLRSLFG [CPEP65],Francisella novicida Norm AUC,[1],0.6089
same,HCV Norm MEAN,HCV replicon; peptide screen,0.8278
same,HIV1 Norm MEAN,HIV1 strain NL4-3; peptide screen,0.2888
same,EBV Norm MEAN,EBV; peptide screen,0.6954
same,Neuraminidase activity normalized to vehicle,influenza A H1N1 virus; 200 µM peptide,"0,356"
same,Neuraminidase activity normalized to vehicle,"influenza A H1N1 virus; 0,823 µM peptide","0,8623"
same,Neuraminidase activity normalized to vehicle,"influenza A H1N1 virus; 22,2 µM peptide","1,0442"
same,Neuraminidase activity normalized to vehicle,"influenza A H1N1 virus; 2,4691 µM peptide","0,9706"
same,Neuraminidase activity normalized to vehicle,"influenza A H1N1 virus; 7,4074 µM peptide","0,9802"
same,Neuraminidase activity normalized to vehicle,"influenza A H1N1 virus; 66,6667 µM peptide","1,0044"
RQARRNRRR [CPEP110],Francisella novicida Norm AUC,[1],1.637
same,HCV Norm MEAN,HCV replicon,0.05205
same,HIV1 Norm MEAN,HIV1 strain NL4-3,0.3127
same,EBV Norm MEAN,EBV,2.204
same,Neuraminidase activity normalized to vehicle,influenza A H1N1 virus; 200 µM peptide,"0,8723"
same,Neuraminidase activity normalized to vehicle,"influenza A H1N1 virus; 0,823 µM peptide","1,0272"
same,Neuraminidase activity normalized to vehicle,"influenza A H1N1 virus; 22,2 µM peptide","0,8952"
same,Neuraminidase activity normalized to vehicle,"influenza A H1N1 virus; 2,4691 µM peptide","0,9228"
same,Neuraminidase activity normalized to vehicle,"influenza A H1N1 virus; 7,4074 µM peptide","0,9411"
same,Neuraminidase activity normalized to vehicle,"influenza A H1N1 virus; 66,6667 µM peptide","0,8493"
CPEP74: peptide of the viral peptide library; sequence page not shown (ALGISYGRKKRRQ),Francisella novicida Norm AUC,[1],1.149
same,HCV Norm MEAN,HCV replicon,0.6842
same,HIV1 Norm MEAN,HIV1 strain NL4-3,1.112
same,EBV Norm MEAN,EBV,1.663
same,Neuraminidase activity normalized to vehicle,influenza A H1N1 virus; 200 µM peptide,"0,8907"
same,Neuraminidase activity normalized to vehicle,"influenza A H1N1 virus; 0,823 µM peptide","0,913"
same,Neuraminidase activity normalized to vehicle,"influenza A H1N1 virus; 22,2 µM peptide","0,9469"
same,Neuraminidase activity normalized to vehicle,"influenza A H1N1 virus; 2,4691 µM peptide","1,0192"
same,Neuraminidase activity normalized to vehicle,"influenza A H1N1 virus; 7,4074 µM peptide","0,9165"
same,Neuraminidase activity normalized to vehicle,"influenza A H1N1 virus; 66,6667 µM peptide","0,9895"
PTAPP [CPEP49],Francisella novicida Norm AUC,[1],1.057
same,HCV Norm MEAN,HCV replicon,0.1885
same,HIV1 Norm MEAN,HIV1 strain NL4-3,1.171
same,EBV Norm MEAN,EBV,0.9513
same,Neuraminidase activity normalized to vehicle,influenza A H1N1 virus; 200 µM peptide,"0,7922"
same,Neuraminidase activity normalized to vehicle,"influenza A H1N1 virus; 0,823 µM peptide","0,6686"
same,Neuraminidase activity normalized to vehicle,"influenza A H1N1 virus; 22,2 µM peptide","0,8389"
same,Neuraminidase activity normalized to vehicle,"influenza A H1N1 virus; 2,4691 µM peptide","0,6943"
same,Neuraminidase activity normalized to vehicle,"influenza A H1N1 virus; 7,4074 µM peptide","0,7716"
same,Neuraminidase activity normalized to vehicle,"influenza A H1N1 virus; 66,6667 µM peptide","0,9061"
IHTHARFLIT [CPEP139],Francisella novicida Norm AUC,[1],1.233
same,HCV Norm MEAN,HCV replicon,0.5677
same,HIV1 Norm MEAN,HIV1 strain NL4-3,2.216
same,EBV Norm MEAN,EBV,1.5606
same,Neuraminidase activity normalized to vehicle,influenza A H1N1 virus; 200 µM peptide,"0,8832"
same,Neuraminidase activity normalized to vehicle,"influenza A H1N1 virus; 0,823 µM peptide","1,1262"
same,Neuraminidase activity normalized to vehicle,"influenza A H1N1 virus; 22,2 µM peptide","0,9135"
same,Neuraminidase activity normalized to vehicle,"influenza A H1N1 virus; 2,4691 µM peptide","1,0704"
same,Neuraminidase activity normalized to vehicle,"influenza A H1N1 virus; 7,4074 µM peptide","1,0144"
same,Neuraminidase activity normalized to vehicle,"influenza A H1N1 virus; 66,6667 µM peptide","0,8125"
PPPPY [CPEP132],Francisella novicida Norm AUC,[1],0.9275
same,HCV Norm MEAN,HCV replicon,0.2215
same,HIV1 Norm MEAN,HIV1 strain NL4-3,1.621
same,EBV Norm MEAN,EBV,1.203
same,Neuraminidase activity normalized to vehicle,influenza A H1N1 virus; 200 µM peptide,"0,8244"
same,Neuraminidase activity normalized to vehicle,"influenza A H1N1 virus; 0,823 µM peptide","0,8549"
same,Neuraminidase activity normalized to vehicle,"influenza A H1N1 virus; 22,2 µM peptide","0,9192"
same,Neuraminidase activity normalized to vehicle,"influenza A H1N1 virus; 2,4691 µM peptide","0,87"
same,Neuraminidase activity normalized to vehicle,"influenza A H1N1 virus; 7,4074 µM peptide","0,8306"
same,Neuraminidase activity normalized to vehicle,"influenza A H1N1 virus; 66,6667 µM peptide","1,0078"
CPEP14: peptide of the viral peptide library; sequence page not shown (ILHTPGCVPCVR),Francisella novicida Norm AUC,[1],1.22
same,HCV Norm MEAN,HCV replicon,0.5608
same,HIV1 Norm MEAN,HIV1 strain NL4-3,0.4683
same,EBV Norm MEAN,EBV,1.5484
same,Neuraminidase activity normalized to vehicle,influenza A H1N1 virus; 200 µM peptide,"0,9254"
same,Neuraminidase activity normalized to vehicle,"influenza A H1N1 virus; 0,823 µM peptide","0,9272"
same,Neuraminidase activity normalized to vehicle,"influenza A H1N1 virus; 22,2 µM peptide","1,0033"
same,Neuraminidase activity normalized to vehicle,"influenza A H1N1 virus; 2,4691 µM peptide","0,9392"
same,Neuraminidase activity normalized to vehicle,"influenza A H1N1 virus; 7,4074 µM peptide","0,9017"
same,Neuraminidase activity normalized to vehicle,"influenza A H1N1 virus; 66,6667 µM peptide","1,0554"
